According to patent US20230284621A1, “HERBICIDAL COMPOSITIONS” (PBI-Gordon Corporation, priority 2022, published 2023):

How the values were obtained:
[1] = Chemical stability, ambient storage; format: physicochemical; conditions: for 17 Months (% Change from Initial): active ingredient in Professional Formulation 1, 17 Months (title: 14 Months); for 16 Months (% Change from Initial): active ingredient in Professional Formulation 2
Experimental: (§1) Formulations were prepared as described in Example I. Physically stable formulations (no settling or physical issues observed) were tested for chemical stability over various time spans and temperature conditions.

[2] = Chemical stability, accelerated 40° C. storage; format: physicochemical; conditions: for 30 Days @ 40° C. (% Change from Initial): 30 days at 40° C.; for 42 Days @ 40° C. (% Change from Initial): 42 days at 40° C.
Experimental: as §1
Formulations were prepared as described in Example III. Physically stable formulations (no settling or physical issues observed) were tested for chemical stability over various time spans and temperature conditions.

[3] = active ingredient in Consumer Formulation 3
[4] = active ingredient in Professional Formulation 1
[5] = active ingredient in Professional Formulation 2
[6] = active ingredient in Ready to Use Formulation 3
[7] = active ingredient in Ready-to-Use Formulation 2

## O=C(O)COc1ccc(Cl)cc1Cl [2,4-D acid]
[1]
  17 Months (% Change from Initial): +2.71%
  16 Months (% Change from Initial): −2.02%
[2]; [3]
  30 Days @ 40° C. (% Change from Initial): −0.21%
[2]; [4]
  42 Days @ 40° C. (% Change from Initial): +0.66%
[2]; [5]
  42 Days @ 40° C. (% Change from Initial): +1.38%
[2]; [6]
  30 Days @ 40° C. (% Change from Initial): −.21%
[2]; [7]
  30 Days @ 40° C. (% Change from Initial): +0.83%

## COc1c(Cl)ccc(Cl)c1C(=O)O [Dicamba acid, 3,6-dichloro-2-methoxybenzoic acid]
[1]
  17 Months (% Change from Initial): +2.04%
  16 Months (% Change from Initial): −0.80%
[2]; [3]
  30 Days @ 40° C. (% Change from Initial): 0.00%
[2]; [4]
  42 Days @ 40° C. (% Change from Initial): −4.11%
[2]; [5]
  42 Days @ 40° C. (% Change from Initial): 0.00%
[2]; [6]
  30 Days @ 40° C. (% Change from Initial): −1.79%
[2]; [7]
  30 Days @ 40° C. (% Change from Initial): +1.10%

## Cc1nn(-c2cc(NS(C)(=O)=O)c(Cl)cc2Cl)c(=O)n1C(F)F [Sulfentrazone, N-[2,4-dichloro-5-[4-(difluoromethyl)-3-methyl-5-oxo-1,2,4-triazol-1-yl]phenyl]methanesulfonamide]
[1]
  17 Months (% Change from Initial): +3.60%
  16 Months (% Change from Initial): +5.71%
[2]; [3]
  30 Days @ 40° C. (% Change from Initial): 0.00%
[2]; [4]
  42 Days @ 40° C. (% Change from Initial): +1.30%
[2]; [5]
  42 Days @ 40° C. (% Change from Initial): +0.29%
[2]; [6]
  30 Days @ 40° C. (% Change from Initial): −0.33%
[2]; [7]
  30 Days @ 40° C. (% Change from Initial): −0.67%

## Cc1c(C(=O)c2c[nH]n(C)c2=O)ccc(S(C)(=O)=O)c1C1=NOCC1 [Topramazone, 4-[3-(4,5-dihydro-1,2-oxazol-3-yl)-2-methyl-4-methylsulfonylbenzoyl]-2-methyl-1H-pyrazol-3-one]
[1]
  17 Months (% Change from Initial): −4.79%
  16 Months (% Change from Initial): −4.40%
[2]; [3]
  30 Days @ 40° C. (% Change from Initial): −1.53%
[2]; [4]
  42 Days @ 40° C. (% Change from Initial): −3.89%
[2]; [5]
  42 Days @ 40° C. (% Change from Initial): +1.14%
[2]; [6]
  30 Days @ 40° C. (% Change from Initial): −0.46%
[2]; [7]
  30 Days @ 40° C. (% Change from Initial): 0.00%
